Data from patent publication US12180187B2, “1-phenyl-5-azinylpyrazolyl-3-oxyalkyl acids and their use for controlling unwanted plant growth” (BAYER AKTIENGESELLSCHAFT, priority 2019, dated 2024).

Tests used:
VERPE [1] = assay: Pre-emergence action at 320 g/ha against VERPE; format: in vivo, Veronica persica; conditions: visual scoring after about 3 weeks vs untreated controls
Summary of the method: (§1)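 Pre-emergence soil-surface spray: WP or EC formulation, aqueous, 0.5% additive, 600 l/ha water volume. Greenhouse growth about 3 weeks; visual percent effect relative to untreated pots.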

AMARE = assay: Post-emergence action against AMARE, 1.28 kg/ha; format: in vivo, Amaranthus retroflexus; conditions: dosage 1280 g/ha, visual rating about 3 weeks after treatment vs untreated controls (100% = plants died)
Summary of the method: (§2)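 Percent activity was scored visually ~3 wk post-spray relative to untreated plants. Treatment was post-emergence at the one-leaf stage using WP/EC in water with 0.5% additive (600 L/ha).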

VIOTR [2] = assay: Pre-emergence action at 320 g/ha against VIOTR; format: in vivo, Viola tricolor; conditions: dosage 320 g/ha
Summary of the method: as §1

LOLRI [3] = assay: Post-emergence action against LOLRI, 1.28 kg/ha; format: in vivo, Lolium rigidum; conditions: dosage 1280 g/ha, visual rating about 3 weeks after treatment vs untreated controls
Summary of the method: as §2

LOLRI [4] = assay: Pre-emergence action at 320 g/ha against LOLRI; format: in vivo, Lolium rigidum; conditions: visual scoring after about 3 weeks vs untreated controls
Summary of the method: as §1

ECHCG = assay: Post-emergence action at 320 g/ha against ECHCG; format: in vivo, Echinochloa crus-galli; conditions: dosage 320 g/ha, visual rating about 3 weeks after treatment vs untreated controls (100% = plants died)
Summary of the method: (§3)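 Herbicidal effect is scored by eye about 3 weeks after a foliar spray and expressed as percent activity, with untreated plants as 0% and dead plants as 100%. Treatment is applied at the one-leaf stage of greenhouse-grown, soil-sown plants, at a water rate of 600 l/ha containing 0.5% additive.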

LOLRI [5] = assay: Pre-emergence action against LOLRI, 1280 g/ha; format: in vivo, Lolium rigidum; conditions: visual scoring after about 3 weeks vs untreated controls, 100% = plants have died, 0% = like control plants
Summary of the method: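 Weed seeds sown in sandy loam in pots, covered with soil; compound as WP or EC applied to soil surface as aqueous suspension/emulsion with 0.5% additive at 600 L/ha water. Greenhouse, good growth conditions; visual % damage vs untreated controls after about 3 weeks (100% = plants dead, 0% = like control).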

DIGSA [6] = assay: Post-emergence action against DIGSA, 1.28 kg/ha; format: in vivo, Digitaria sanguinalis; conditions: dosage 1280 g/ha, visual rating about 3 weeks after treatment vs untreated controls
Summary of the method: as §2

ALOMY = assay: Post-emergence action against ALOMY, 1.28 kg/ha; format: in vivo, Alopecurus myosuroides; conditions: dosage 1280 g/ha, visual rating about 3 weeks after treatment vs untreated controls
Summary of the method: as §2

AVEFA [7] = assay: Pre-emergence action at 320 g/ha against AVEFA; format: in vivo; conditions: visual scoring after about 3 weeks vs untreated controls
Summary of the method: as §1

VERPE [8] = assay: Post-emergence action against VERPE, 1.28 kg/ha; format: in vivo, Veronica persica; conditions: dosage 1280 g/ha, visual rating about 3 weeks after treatment vs untreated controls (100% = plants died)
Summary of the method: as §2

AVEFA [9] = assay: Post-emergence action at 320 g/ha against AVEFA; format: in vivo; conditions: visual rating about 3 weeks after treatment vs untreated controls
Summary of the method: as §3

VIOTR [10] = assay: Post-emergence action at 320 g/ha against VIOTR; format: in vivo, Viola tricolor; conditions: visual rating about 3 weeks after treatment vs untreated controls
Summary of the method: as §3

SETVI = assay: Post-emergence action against SETVI, 1.28 kg/ha; format: in vivo, Setaria viridis; conditions: dosage 1280 g/ha, visual rating about 3 weeks after treatment vs untreated controls
Summary of the method: as §2

DIGSA [11] = assay: Post-emergence action at 320 g/ha against DIGSA; format: in vivo, Digitaria sanguinalis; conditions: dosage 320 g/ha, visual rating about 3 weeks after treatment vs untreated controls (100% = plants died)
Summary of the method: as §3

ECHGC = assay: Pre-emergence action at 320 g/ha against ECHGC; format: in vivo, Echinochloa crus-galli; conditions: visual scoring after about 3 weeks vs untreated controls
Summary of the method: as §1

| Compound | Pre-emergence action against VERPE in % (VERPE [1]) | Post-emergence action against AMARE (AMARE) | Pre-emergence action against VIOTR in % (VIOTR [2]) | Post-emergence action against LOLRI (LOLRI [3]) | Pre-emergence action against LOLRI in % (LOLRI [4]) | Post-emergence action at 320 g/ha against ECHCG in % (ECHCG) | Pre-emergence action against LOLRI (LOLRI [5]) | Post-emergence action against DIGSA (DIGSA [6]) | Post-emergence action against ALOMY (ALOMY) | Pre-emergence action against AVEFA in % (AVEFA [7]) | Post-emergence action against VERPE (VERPE [8]) | Post-emergence action against AVEFA in % (AVEFA [9]) | Post-emergence action against VIOTR in % (VIOTR [10]) | Post-emergence action against SETVI (SETVI) | Pre-emergence action against ECHGC in % (ECHGC) | further results |
| --- | --- | --- | --- | --- | --- | --- | --- | --- | --- | --- | --- | --- | --- | --- | --- | --- |
| COC(=O)CNC(=O)COc1nn(-c2ccccc2F)c(-c2ccc(F)nc2)c1C(F)(F)F [Example X-007] | 100% | 90% | 100% | 100% | 100% | 80% | 100% | 100% | 100% | 100% | 90% | 80% | 80% | 100% |  |  |
| COC(=O)[C@@H](C)Oc1nn(-c2ccccc2F)c(-c2cncnc2)c1Br [VI-011, Methyl (2R)-2-{[4-bromo-1-(2-fluorophenyl)-5-(pyrimidin-5-yl)-1H-pyrazol-3-yl]oxy}propanoate] |  |  |  | 100% |  |  |  | 100% | 100% |  |  |  |  | 100% | 80% | pest or weed control at 320 g/ha (DIGSA [11]; Digitaria sanguinalis, 504 h): 90%; pest or weed control at 320 g/ha (VERPE [1]; Veronica persica, 504 h): 90%; pest or weed control at 320 g/ha (VIOTR [2]; Viola tricolor, 504 h): 100%; pest or weed control at 320 g/ha (LOLRI [4]; Lolium rigidum, 504 h): 100%; pest or weed control at 1280 g/ha (LOLRI [5]; Lolium rigidum, 504 h): 100%; pest or weed control at 320 g/ha (AVEFA [7]; Avena fatua, 504 h): 80%; pest or weed control at 320 g/ha (AVEFA [9]; Avena fatua, 504 h): 90%; pest or weed control at 320 g/ha (VIOTR [10]; Viola tricolor, 504 h): 90% |
| COC(=O)COc1nn(-c2ccc(F)cc2)c(-c2ccc(F)nc2)c1Br [VII-002] | 100% |  |  |  |  | 90% | 100% |  |  | 80% |  | 100% | 90% | 90% | 90% |  |
| CCOC(=O)COc1nn(-c2ccc(F)cc2F)c(-c2ccc(F)nc2)c1Cl [VII-016] | 90% | 90% | 90% | 90% | 100% | 80% | 100% |  |  | 90% | 90% | 80% | 80% | 90% | 100% |  |
| COC(=O)COc1nn(-c2ccc(F)cc2)c(-c2cccnc2)c1Br [VII-028] | 100% | 100% | 100% | 90% |  | 80% |  |  |  |  | 90% | 80% | 80% | 90% | 80% |  |
| CCC(Oc1nn(-c2ccccc2F)c(-c2ccc(F)nc2)c1Br)C(=O)OC (stereo not drawn) [VII-029] | 100% | 90% | 100% | 100% | 90% | 80% | 100% | 100% | 100% |  | 90% | 90% | 100% |  |  |  |
| COC(=O)COc1nn(-c2ccccc2F)c(-c2ccc(F)nc2)c1F [VII-040] | 100% | 90% | 100% |  | 100% | 80% | 100% | 100% | 100% | 100% | 100% | 90% | 90% | 90% | 90% |  |
| CCOC(=O)COc1nn(-c2ccccc2F)c(-c2ccc(F)nc2)c1C [VII-117] | 90% | 100% | 100% | 100% | 100% |  | 100% | 100% |  | 100% | 100% | 90% | 80% |  | 90% | Post-emergence action at 320 g/ha against DIGSA in % (DIGSA [11]): 90% |
| COC(=O)[C@@H](C)Oc1nn(-c2cc(F)ccc2F)c(-c2cncc(F)c2)c1C#N [VII-147] | 100% | 100% | 100% | 100% | 100% | 80% | 100% | 100% | 100% | 100% | 100% | 80% |  | 90% | 100% |  |
| COC(=O)[C@@H](C)Oc1nn(-c2ccccc2F)c(-c2ccnc(F)c2)c1Br [VIII-006] |  | 100% | 100% | 100% | 100% | 90% | 100% | 90% | 100% | 80% | 90% | 80% |  | 90% |  |  |
